Results on five compounds are retold here after patent US20210284621A1 (priority 2018, published 2021).

Experiment [1] concerns the target T1, CB1 receptor (Homo sapiens, UniProt P21554). Put plainly: cAMP Assay #2: Hit Hunter cAMP assay, Gi-coupled agonist activity, CB1. The format is cell-based. The arrangement: host or cells: PathHunter cell lines. How it is done: (§1) Compounds of the invention were assayed in the Hit Hunter® cAMP assay to determine Gi-coupled agonist activity on the CB1 and CB2 receptors, the results of which are provided in Table 5.
(§2) The Hit Hunter® cAMP assay monitors the activation of a GPCR via Gi and […] secondary messenger signaling in a homogenous, non-imaging assay format using a technology developed by DiscoverX called Enzyme Fragment Complementation (EFC) with β-galactosidase (β-Gal) as the functional reporter. […] ED is fused to cAMP and in the assay competes with cAMP generated by cells for binding to a cAMP-specific antibody. Active β-Gal is formed by complementation of exogenous EA to any unbound ED cAMP. Active enzymes can then convert a chemiluminescent substrate, generating an output signal detectable on a standard microplate reader.
(§3) cAMP Hunter cell lines were expanded from freezer stocks according to standard procedures. Cells were seeded in a total volume of 20 μL into white walled, 384-well microplates and incubated at 37° C. for the appropriate time prior to testing. cAMP modulation was determined using the DiscoverX Hit Hunter cAMP XS+ assay. For Gi agonist activity determination, cells were incubated with sample in the presence of EC80 forskolin to induce response (20 μM and 25 μM in the CB1 and CB2 assays, respectively). Media was aspirated from cells and replaced with 15 μL 2:1 HBSS/10 mM HEPES:cAMP XS+Ab reagent.
(§4) Intermediate dilution of sample stocks was performed to generate 4× sample in assay buffer. 5 μL of 4× compound was added to cells and incubated at 37° C. or room temperature for 30 or 60 minutes. Final vehicle concentration was 1%. Assay signal was generated through incubation with 20 μL cAMP XS+ED/CL lysis cocktail for one hour at room temperature. Microplates were read following signal generation with a PerkinElmer Envision™ instrument for chemiluminescent signal detection. Compound activity was analyzed using CBIS data analysis suite (Chem Innovation, CA). For agonist assays, percentage activity was calculated using the following formula: % Activity=100%×(1−(mean RLU of test sample−mean RLU of Max control ligand)/(mean RLU of vehicle control−mean RLU of Max control ligand). Control ligand was the non-selective CB1/CB2 agonist CP55,940.
A general note: Changes in cAMP serve as a functional read-out for many G protein-coupled receptors.

In experiment [2] the target is T2, CB2 receptor (Homo sapiens, UniProt P34972). Put plainly: cAMP Assay #1: CB2 adenylylcyclase assay in CHO cells. The arrangement: expressed in transfected cells; host or cells: CHO cells. It is filed as cell-based. How it is done: (§5) Compounds of the invention were assayed in an adenylylcyclase assay to determine agonist activity on the CB1 and CB2 receptors, the results of which are provided in Table 4. Exemplary methods for the adenylylcyclase assay can be found in the literature, for example, in Rhee, M-H., et al. Cannabinol Derivatives: Binding to Cannabinoid Receptors and Inhibition of Adenylylcyclase. J Med Chem. 40: 3228-3233 (1997).
CB2 Activity as determined by Adenylylcyclase Assay: CB2 receptor agonist activity was measured by measuring cAMP production. A compound of the invention was incubated with CHO cells expressing human recombinant CB2 for 10 minutes at 37° C.
(§6) Determination of EC50 values: The EC50 values (concentration producing a half-maximal response) were determined by non-linear regression analysis of the concentration-response curves generated with mean replicate values using Hill equation curve fitting: Y=D+[(A−D)/(1+(C/C50)^nH)], where Y=response, A=left asymptote of the curve, D=right asymptote of the curve, C=compound concentration, and C50=EC50, and nH=slope factor. This analysis was performed using software developed at Cerep (Hill software) and validated by comparison with data generated by the commercial software SigmaPlot® 4.0 for Windows® (© 1997 by SPSS Inc.).

Experiment [3] has as its target T1, CB1 receptor. The experiment can be described thus: cAMP Assay #1: CB1 adenylylcyclase assay in CHO cells. The arrangement: expressed in transfected cells; host or cells: CHO cells. It is filed as cell-based. How it is done: as §5
CB1 Activity as determined by Adenylylcyclase Assay: CB1 receptor agonist activity was measured by measuring cAMP production. A compound of the invention was incubated with CHO cells expressing human recombinant CB1 for 20 minutes at 37° C.
as §6

The target of experiment [4] is T2, CB2 receptor. The experiment can be described thus: cAMP Assay #2: Hit Hunter cAMP assay, Gi-coupled agonist activity, CB2. It is filed as cell-based. The settings on record: for CB2 fold selectivity: CB1 EC50 / CB2 EC50. The arrangement: host or cells: cAMP Hunter cell lines. How it is done: as §1, §2, §3, §4
The target of experiment [5] is T1, CB1 receptor. The experiment can be described thus: CB1 competitive radioligand binding assay ([3H] SR141716A). The settings on record: for inhibition at 0.5 µM: 0.5 μM compound, 2.0 nM [3H] SR141716A, 90 min 37° C. The arrangement: expressed in transfected cells; host or cells: Chem-1 cells. The method, boiled down:
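Chem-1 cells expressing human recombinant CB1 incubated 90 min at 37° C with 2.0 nM [3H]SR141716A and compound at 0.5 μM (1% DMSO) in HEPES pH 7.4 buffer with MgCl2, CaCl2, 0.2% BSA. Read-out is % inhibition of radioligand binding.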

Experiment [6] concerns the target T1, CB1 receptor. The experiment can be described thus: cell-based. The arrangement: host or cells: PathHunter cell lines.
Experiment [7] concerns the target T2, CB2 receptor. Put plainly: cell-based. The arrangement: host or cells: cAMP Hunter cell lines. The method, boiled down:
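PathHunter β-Arrestin enzyme fragment complementation cells, EA-tagged β-Arrestin and PK-tagged receptor, exposed to compound for 90 to 180 minutes at 37° C. or room temperature, 1% vehicle. Chemiluminescence read 1 h after detection reagent; agonist % activity relative to vehicle and MAX control ligand.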

Experiment [8] addresses T2, CB2 receptor. The experiment can be described thus: CB2 competitive radioligand binding assay ([3H] WIN-55,212-2). The arrangement: expressed in transfected cells; host or cells: CHO-K1 cells. The settings on record: for inhibition at 0.05 µM: 0.05 μM compound, 2.4 nM [3H] WIN-55,212-2, 90 min 37° C.; for Fold Selectivity (CB1/CB2): Table 2, ratio of Ki CB1/CB2. The method in brief:
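Single-concentration displacement: 2.4 nM [3H]WIN-55,212-2 competed with 0.05 μM compound (1% DMSO) for 90 min at 37 °C on human CB2 expressed in CHO-K1 cells (HEPES 20 mM, pH 7.0, 0.5% BSA). Result given as % inhibition of bound radioligand.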

The subject of another experiment is LPS-induced PBMCs. The experiment can be described thus: Inflammatory cytokine release from LPS-induced PBMCs (Luminex). The settings on record: fold change from LPS-treated PBMCs, compounds 10 μM (DEX 1 μg/ml) 2 h, then LPS 0.1 μg/ml 24 h, negative = reduced. It is filed as cell-based, human. How it is done: Compounds of the invention were assayed for their effect on inflammatory cytokine release from lipopolysaccharides (LPS)-induced PBMCs, isolated from a human blood sample, the results of which are provided in Table 7 as fold change. Exemplary methods for quantifying secretion of inflammatory cytokines in PBMCs are known in the art, for example, as described in Hailer et al., Infection and Immunity. 68(2):752-759 (2000); and Merlini et al., Frontiers in Immunology. 7:614 (2016); each of which is incorporated herein by reference with respect to methods for evaluating cytokine release in PBMCs.
In brief, human blood samples from healthy volunteers were collected and PBMCs were isolated. PBMCs were cultured and each compound was assayed in triplicate at a final concentration of 10 μM for 2 hours. 1 μg/ml dexamethasone (DEX) served as a positive control. LPS was added at a final concentration of 0.1 μg/ml and further incubated for 24 hours. At the end of the incubation, the supernatants were collected and the levels of a panel of secreted cytokines were measured by a Human Magnetic Luminex® assay (R&D). The results in Table 7 are presented as a fold change from LPS-treated PBMCs. Reduced levels are expressed by negative values. OOR denotes values that are out of the standard curve range for the specific cytokine and thus, could not be accurately measured. Cytotoxicity was also determined. Compounds with cytotoxicity ≥50% was considered cytotoxic. Baseline cytotoxicity of untreated PBMCs was 17% and all compounds presented in Table 7 induced cytotoxicity below 25%.

Where [9] appears, read: PathHunter agonist mode, read-out: CB1 Activity (β-Arrestin).
[10] abbreviates: PathHunter agonist mode, read-out: CB2 Activity (β-Arrestin).
Setting [11] is: OOR = out of standard curve range.

SMILES strings stand for the structures. Where two headings read alike, the source gives them in different places. A value given as a limit tells only on which side of the number the result lay.

T1 sequence (P21554 whole entry, the tested form may be a part): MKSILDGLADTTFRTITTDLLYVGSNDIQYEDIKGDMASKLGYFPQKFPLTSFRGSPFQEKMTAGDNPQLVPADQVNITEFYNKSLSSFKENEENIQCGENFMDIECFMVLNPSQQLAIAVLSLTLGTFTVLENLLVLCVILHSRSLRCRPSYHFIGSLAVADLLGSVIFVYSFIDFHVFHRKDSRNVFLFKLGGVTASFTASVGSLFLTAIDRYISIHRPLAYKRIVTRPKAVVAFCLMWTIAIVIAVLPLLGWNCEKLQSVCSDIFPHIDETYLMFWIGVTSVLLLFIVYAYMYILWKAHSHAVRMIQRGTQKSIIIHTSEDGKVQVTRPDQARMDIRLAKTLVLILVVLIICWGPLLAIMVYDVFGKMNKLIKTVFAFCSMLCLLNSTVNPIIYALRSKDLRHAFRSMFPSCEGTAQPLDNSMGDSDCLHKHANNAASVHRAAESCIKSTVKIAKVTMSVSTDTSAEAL
T2 sequence (P34972 whole entry): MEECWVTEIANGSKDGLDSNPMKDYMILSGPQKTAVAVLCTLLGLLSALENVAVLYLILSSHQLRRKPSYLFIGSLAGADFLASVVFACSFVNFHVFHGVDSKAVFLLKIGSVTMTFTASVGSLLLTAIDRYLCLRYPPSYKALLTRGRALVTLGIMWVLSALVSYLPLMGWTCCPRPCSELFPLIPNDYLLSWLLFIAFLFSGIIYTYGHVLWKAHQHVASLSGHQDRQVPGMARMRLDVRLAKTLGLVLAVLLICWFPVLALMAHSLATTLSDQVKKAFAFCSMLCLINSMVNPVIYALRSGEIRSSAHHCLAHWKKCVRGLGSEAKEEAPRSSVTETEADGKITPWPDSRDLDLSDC

Usually inhibition stands for the drop in the measured response relative to a control, in per cent. A word on the Ki: it is a dissociation constant, usually derived from enzyme kinetics or from competition with a known ligand. Turning to `CCCCCCC(C)(C)c1cc(O)c2c(c1)OC(C)(C)[C@@H]1CC=C(C(=O)NCCCO)C[C@@H]21` [Compound 13, (6aR,10aR)-1-Hydroxy-N-(3-hydroxypropyl)-6,6-dimethyl-3-(2-methyloctan-2-yl)-6a,7,10,10a-tetrahydro-6H-benzo[c]chromene-9-carboxamide], the EC50 on CB1 receptor [1] (Hit Hunter cAMP, 20 μM forskolin, control ligand CP55,940, read-out: CB1, EC50) amounted to 66.2 nM; at CB2 receptor [2] (CHO cells, 10 min 37° C., relative to 100 nM WIN 55212-2, read-out: CB2 Activity EC50 (cAMP)) it was 3.1 nM; on CB1 receptor [3] (CHO cells, 20 min 37° C., relative to 10 nM CP 55940, read-out: CB1 Activity EC50 (cAMP)), 4.6 nM; on CB2 receptor [4] (Hit Hunter cAMP, 25 μM forskolin, control ligand CP55,940, read-out: CB2, EC50), 2.5 nM; at CB1 receptor [6] (setting [9]) it was 787 nM; on CB2 receptor [7] (setting [10]), 807 nM. The CB2 fold selectivity on CB2 receptor [4] (Hit Hunter cAMP) is reported as 26.5. Besides, on CB1 receptor [5], the inhibition at 0.5 µM was determined as 49%. The Ki on CB1 receptor [5] (Table 2, read-out: CB1 Binding Ki) turned out to be 420 nM; at CB2 receptor [8] (Table 2, read-out: CB2 Binding Ki), 12.4 nM. Moreover, at 0.05 µM the inhibition at CB2 receptor [8] was 68%. Besides, at CB2 receptor [8], the “Fold Selectivity (CB1/CB2)” value turned out to be 34.

With `CCCCCCC(C)(C)c1cc(O)c2c(c1)OC(C)(C)[C@@H]1CC=C(C(=O)OC)C[C@@H]21` [Compound 28, Methyl (6aR,10aR)-1-hydroxy-6,6-dimethyl-3-(2-methyloctan-2-yl)-6a,7,10,10a-tetrahydro-6H-benzo[c]chromene-9-carboxylate], the EC50 at CB2 receptor [2] turned out to be 59 nM; at CB1 receptor [3], 8.2 nM; on CB1 receptor [6], 654 nM; at CB2 receptor [7] (setting [10]) it was 1.7 nM. Further, the figures for the Ki on CB1 receptor [5] and at CB2 receptor [8] were 699 nM and 32 nM, respectively. This compound displayed an inhibition at 0.5 µM on CB1 receptor [5] of 74%. On CB2 receptor [8], this compound gave an inhibition at 0.05 µM of 77%. Also, at CB2 receptor [8], the “Fold Selectivity (CB1/CB2)” value is on record as 22.

For the compound `CCCCCCC(C)(C)c1cc(OC)c2c(c1)OC(C)(C)[C@@H]1CC=C(C(=O)O)C[C@@H]21` [Compound 34, (6aR,10aR)-1-methoxy-6,6-dimethyl-3-(2-methyloctan-2-yl)-6a,7,10,10a-tetrahydro-6H-benzo[c]chromene-9-carboxylic acid], the EC50 at CB2 receptor [2] is more than 300 nM; on CB1 receptor [3], more than 300 nM; on CB1 receptor [6] it was more than 3000 nM; on CB2 receptor [7] (setting [10]), more than 3000 nM. The Ki at CB1 receptor [5] and on CB2 receptor [8] was more than 3000 nM throughout.

On CB1 receptor [1], `CCCC(C)(C)c1cc(O)c2c(c1)OC(C)(C)[C@@H]1CC=C(C(=O)O)C[C@@H]21` [Compound 110, (6aR,10aR)-1-hydroxy-6,6-dimethyl-3-(2-methylpentan-2-yl)-6a,7,10,10a-tetrahydro-6H-benzo[c]chromene-9-carboxylic acid] yielded an EC50 of more than 3000 nM. The EC50 at CB2 receptor [4] came out at 211 nM. The same compound registered a CB2 fold selectivity on CB2 receptor [4] (Hit Hunter cAMP) of more than 14. This compound had a Ki at CB1 receptor [5] of more than 3000 nM. In the experiment on LPS-induced PBMCs, this compound yielded an IL17A of 1.3 fold change, an IL-1β of −1.5 fold change, an IL-4 of −1.3 fold change and an IL-6 of −1.2 fold change. In the experiment with LPS-induced PBMCs, this compound registered an IL-8 of −1.0 fold change, an IL-10 of −1.0 fold change, an MCP-1 of −3.0 fold change and a TNFα of −1.0 fold change. Moreover, in the experiment with LPS-induced PBMCs (setting [11]), the “IL-12 (p70)” value is −1.1 fold change and the L-31 is −1.3 fold change. In addition, the EC50 on CB1 receptor [6] (setting [9]) was more than 3000 nM. Also, the EC50 at CB2 receptor [7] was 37.4 nM. Besides, the Ki on CB2 receptor [8] was more than 3000 nM.

Turning to `CC(C)(c1ccccc1)c1cc(O)c2c(c1)OC(C)(C)[C@@H]1CC=C(C(=O)O)C[C@@H]21` [Compound 35, (6aR,10aR)-1-Hydroxy-6,6-dimethyl-3-(2-phenylpropan-2-yl)-6a,7,10,10a-tetrahydro-6H-benzo[c]chromene-9-carboxylic acid], the EC50 at CB2 receptor [2] is more than 300 nM; at CB1 receptor [3], more than 300 nM; on CB1 receptor [6] (setting [9]), more than 3000 nM; on CB2 receptor [7] (setting [10]) it was more than 3000 nM. The Ki at CB1 receptor [5] and at CB2 receptor [8] was more than 3000 nM throughout.
